Laboratory results published in patent publication US9938261B2, “Heterocyclic compounds and methods of use thereof” (AMBIT BIOSCIENCES CORPORATION, priority 2011, dated 2018).
Read-outs that look alike come from different tables or passages of the source.

Columns and labels:
[1] = biological target: kinase panel containing either 386 or 392 distinct kinases; assay: Kinase selectivity score S10 from competition binding panel
Method in brief: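 Compounds at 10 μM competed against immobilised affinity ligands for T7 phage-fused or HEK-293-expressed DNA-tagged kinases, 1 h at room temperature; bound kinase eluted and quantified by qPCR. S10 = fraction of distinct non-mutant kinases with percent of DMSO control below 10.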

[2] = biological target: T1, KIT (Homo sapiens, UniProt P10721); assay: Competition binding assay, KIT Kd
T1 construct: made in house
T1 sequence (P10721 26-976): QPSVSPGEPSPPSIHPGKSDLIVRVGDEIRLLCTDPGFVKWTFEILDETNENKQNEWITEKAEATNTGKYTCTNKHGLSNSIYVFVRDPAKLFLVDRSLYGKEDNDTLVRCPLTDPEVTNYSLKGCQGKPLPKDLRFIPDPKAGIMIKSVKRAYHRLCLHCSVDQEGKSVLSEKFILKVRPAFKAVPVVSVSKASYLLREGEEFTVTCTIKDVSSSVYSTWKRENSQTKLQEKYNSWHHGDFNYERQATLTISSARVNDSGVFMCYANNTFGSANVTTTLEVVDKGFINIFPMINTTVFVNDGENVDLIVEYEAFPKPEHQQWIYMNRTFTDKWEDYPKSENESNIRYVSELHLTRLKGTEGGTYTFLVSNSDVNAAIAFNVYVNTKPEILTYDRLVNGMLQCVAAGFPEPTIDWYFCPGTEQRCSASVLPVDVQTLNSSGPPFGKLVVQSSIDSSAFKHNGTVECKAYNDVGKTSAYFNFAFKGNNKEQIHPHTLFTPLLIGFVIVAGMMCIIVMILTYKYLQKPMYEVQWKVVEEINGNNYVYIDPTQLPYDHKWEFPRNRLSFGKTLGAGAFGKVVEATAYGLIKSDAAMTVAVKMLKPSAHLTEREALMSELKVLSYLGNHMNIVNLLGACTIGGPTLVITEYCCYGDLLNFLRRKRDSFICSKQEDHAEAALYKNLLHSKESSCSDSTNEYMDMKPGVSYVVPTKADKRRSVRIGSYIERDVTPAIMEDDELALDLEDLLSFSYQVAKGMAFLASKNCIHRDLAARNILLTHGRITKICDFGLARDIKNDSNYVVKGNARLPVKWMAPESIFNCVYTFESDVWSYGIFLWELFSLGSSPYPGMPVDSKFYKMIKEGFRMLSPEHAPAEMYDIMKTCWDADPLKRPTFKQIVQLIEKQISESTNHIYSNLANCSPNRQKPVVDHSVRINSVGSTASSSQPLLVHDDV
Method in brief: (§1)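 Compound displacement of kinase from bead-immobilized ligand is measured by qPCR after 1 h equilibration at room temperature. Kinases are T7 phage fusions or DNA-tagged HEK-293 products.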

[3] = biological target: T2, CSF1R (Homo sapiens, UniProt P07333); assay: Competition binding assay, CSF1R Kd; set-up: made in house
T2 sequence (P07333 20-972): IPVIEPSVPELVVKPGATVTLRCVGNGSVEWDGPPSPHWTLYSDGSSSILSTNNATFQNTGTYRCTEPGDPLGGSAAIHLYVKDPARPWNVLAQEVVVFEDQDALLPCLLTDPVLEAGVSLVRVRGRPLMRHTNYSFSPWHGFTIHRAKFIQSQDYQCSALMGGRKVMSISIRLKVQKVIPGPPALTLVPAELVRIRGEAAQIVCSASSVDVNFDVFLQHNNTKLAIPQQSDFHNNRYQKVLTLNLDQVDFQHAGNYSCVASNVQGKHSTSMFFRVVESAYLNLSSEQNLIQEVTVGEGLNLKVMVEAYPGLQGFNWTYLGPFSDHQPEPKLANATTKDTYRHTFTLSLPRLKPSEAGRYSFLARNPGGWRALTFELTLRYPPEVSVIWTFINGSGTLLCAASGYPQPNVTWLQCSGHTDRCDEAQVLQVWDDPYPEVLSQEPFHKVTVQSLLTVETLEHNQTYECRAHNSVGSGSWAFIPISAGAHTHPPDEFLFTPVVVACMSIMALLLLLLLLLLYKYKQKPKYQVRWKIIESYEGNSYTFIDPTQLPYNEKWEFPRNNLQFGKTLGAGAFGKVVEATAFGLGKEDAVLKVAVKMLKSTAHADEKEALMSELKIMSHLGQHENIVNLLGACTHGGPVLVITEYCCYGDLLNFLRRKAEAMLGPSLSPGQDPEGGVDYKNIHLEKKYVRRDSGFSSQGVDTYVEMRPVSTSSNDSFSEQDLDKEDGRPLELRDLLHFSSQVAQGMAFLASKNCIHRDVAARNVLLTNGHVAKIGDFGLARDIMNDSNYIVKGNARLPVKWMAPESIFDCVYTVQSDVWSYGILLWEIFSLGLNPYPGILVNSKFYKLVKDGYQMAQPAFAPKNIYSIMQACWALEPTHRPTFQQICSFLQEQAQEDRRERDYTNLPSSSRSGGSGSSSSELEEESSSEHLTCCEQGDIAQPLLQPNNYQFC
Method in brief: as §1

[4] = biological target: T2, CSF1R; assay: HEK293 CSF1R phosphorylation MSD assay; assay type: cell-based; set-up: expressed in transfected cells; host or cells: HEK293; conditions: read-out: HEK293 pCSF1R M-CSF MSD:IC50
Method in brief: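 HEK293 cells expressing CSF1R-FKBP were pretreated 2 h at 37° C with 9 half-log concentrations of compound (0.5% DMSO final), then stimulated 5 min with 50 ng/mL human M-CSF. Lysates captured on biotin-FK506 plates; phosphotyrosine detected by MSD electrochemiluminescence. IC50 versus DMSO, averaged from duplicate plates.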

[5] = biological target: T3, PDGFRβ (Homo sapiens, UniProt P09619); assay: Competition binding assay, PDGFRβ Kd
T3 construct: made in house
T3 sequence (P09619 33-1106): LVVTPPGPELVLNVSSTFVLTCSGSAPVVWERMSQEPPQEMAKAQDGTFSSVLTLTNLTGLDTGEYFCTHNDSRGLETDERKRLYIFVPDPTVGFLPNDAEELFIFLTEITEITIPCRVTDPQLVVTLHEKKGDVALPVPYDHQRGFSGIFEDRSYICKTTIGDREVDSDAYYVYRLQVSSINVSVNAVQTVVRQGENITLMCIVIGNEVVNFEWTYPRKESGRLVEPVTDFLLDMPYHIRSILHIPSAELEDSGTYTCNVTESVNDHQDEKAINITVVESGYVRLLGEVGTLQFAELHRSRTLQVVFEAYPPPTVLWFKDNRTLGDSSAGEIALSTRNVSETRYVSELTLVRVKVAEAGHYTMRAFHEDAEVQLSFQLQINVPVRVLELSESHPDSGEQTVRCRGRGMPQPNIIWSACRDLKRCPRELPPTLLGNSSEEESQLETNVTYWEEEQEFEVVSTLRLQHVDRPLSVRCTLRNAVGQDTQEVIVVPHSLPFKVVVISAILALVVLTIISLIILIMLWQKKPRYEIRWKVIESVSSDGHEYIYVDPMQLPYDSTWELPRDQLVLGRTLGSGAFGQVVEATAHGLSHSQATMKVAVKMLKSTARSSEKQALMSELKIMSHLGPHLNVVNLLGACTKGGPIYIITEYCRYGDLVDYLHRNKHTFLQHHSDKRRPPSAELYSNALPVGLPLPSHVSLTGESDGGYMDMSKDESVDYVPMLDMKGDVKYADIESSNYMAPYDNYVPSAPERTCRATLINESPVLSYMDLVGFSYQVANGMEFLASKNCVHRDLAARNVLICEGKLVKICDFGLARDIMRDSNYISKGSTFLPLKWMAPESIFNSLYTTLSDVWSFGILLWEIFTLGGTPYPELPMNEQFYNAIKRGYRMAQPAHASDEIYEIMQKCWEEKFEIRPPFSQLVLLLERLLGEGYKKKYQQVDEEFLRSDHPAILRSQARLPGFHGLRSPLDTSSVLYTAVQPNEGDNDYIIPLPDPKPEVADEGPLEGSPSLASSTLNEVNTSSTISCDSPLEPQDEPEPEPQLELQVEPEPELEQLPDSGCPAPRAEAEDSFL
Method in brief: as §1

[6] = compounds at 10 μM, 386 or 392 distinct kinases
[7] = 2 h compound, human M-CSF 50 ng/mL for 5 min

| Kinase specificity S(10) ([1]; 10 μM, panel of 386 or 392 distinct kinases) | Kd ([2]; competition binding) | Kd ([3]; competition binding) | IC50 ([4]; HEK293 cells, M-CSF stimulated CSF1R phosphorylation, MSD) | Kd ([5]; competition binding) | Kinase specificity S(10) [1, 6] | Kd [2] | Kd [3] | IC50 [4, 7] | Kd [5] | Compound |
| --- | --- | --- | --- | --- | --- | --- | --- | --- | --- | --- |
| C (C>0.02) | ≤ 100 nM | ≤ 5 nM | ≤ 50 nM | ≤ 50 nM |  |  |  |  |  | O[C@@H]1CCCC[C@H]1Nc1nc2ccc(Cn3cnc4cc(-c5cc[nH]n5)ccc43)cc2s1 [Example 211, (1R,2R)-2-((6-((5-(1H-pyrazol-3-yl)-1H-benzo[d]imidazol-1-yl)methyl)benzo[d]thiazol-2-yl)amino)cyclohexanol] |
|  |  |  |  |  | B (0.01<B≤0.02) | ≤ 100 nM | ≤ 5 nM | 50 to 200 nM | ≤ 50 nM | O[C@@H]1Cc2ccccc2[C@H]1Nc1nc2ccc(Cn3cnc4cc(Br)cnc43)cc2s1 [Example 42, (1R,2R)-1-((6-((6-bromo-3H-imidazo[4,5-b]pyridin-3-yl)methyl)benzo[d]thiazol-2-yl)amino)-2,3-dihydro-1H-inden-2-ol] |
|  |  |  |  |  | A (A≤0.01) | 500 to 2000 nM | 5 to 20 nM | 50 to 200 nM | 500 to 2000 nM | Cn1cc(-c2cn(Cc3ccc4nc(N[C@@H]5CCCC[C@H]5O)oc4c3)cn2)cn1 [Example 77, (1R,2R)-2-((6-((4-(1-methyl-1H-pyrazol-4-yl)-1H-imidazol-1-yl)methyl)benzo[d]oxazol-2-yl)amino)cyclohexanol] |
|  |  |  |  |  | C (C>0.02) | ≤ 100 nM | 5 to 20 nM | 50 to 200 nM | ≤ 50 nM | O[C@@H]1CCCC[C@H]1Nc1nc2ccc(Cn3cnc4cccnc43)cc2o1 [Example 56, (1R,2R)-2-((6-((3H-imidazo[4,5-b]pyridin-3-yl)methyl)benzo[d]oxazol-2-yl)amino)cyclohexanol] |

| Compound | Kinase specificity S(10) ([1]; 10 μM, panel of 386 or 392 distinct kinases) | Kd ([2]; competition binding) | Kd ([3]; competition binding) | IC50 ([4]; HEK293 cells, M-CSF stimulated CSF1R phosphorylation, MSD) | Kd ([5]; competition binding) | Kinase specificity S(10) [1, 6] | Kd [2] | Kd [3] | IC50 [4, 7] | Kd [5] |
| --- | --- | --- | --- | --- | --- | --- | --- | --- | --- | --- |
| either (1R,2R)-1-((6-((4-(1-methyl-1H-pyrazol-4-yl)-1H-imidazol-1-yl)methyl)benzo[d]thiazol-2-yl)amino)-2,3-dihydro-1H-inden-2-ol or (1R,2R)-1-((6-((5-(1-methyl-1H-pyrazol-4-yl)-1H-imidazol-1-yl)methyl)benzo[d]thiazol-2-yl)amino)-2,3-dihydro-1H-inden-2-ol [Example 83] |  |  |  |  |  | A (A≤0.01) | 500 to 2000 nM | ≤ 5 nM | 50 to 200 nM | 50 to 500 nM |
